The test addresses T1, ERα (Homo sapiens, UniProt P03372).
T1 construct: endogenous in cells; host or cells: MCF7 (also MCF7 engineered to express Cas9)
T1 sequence (P03372 1-595): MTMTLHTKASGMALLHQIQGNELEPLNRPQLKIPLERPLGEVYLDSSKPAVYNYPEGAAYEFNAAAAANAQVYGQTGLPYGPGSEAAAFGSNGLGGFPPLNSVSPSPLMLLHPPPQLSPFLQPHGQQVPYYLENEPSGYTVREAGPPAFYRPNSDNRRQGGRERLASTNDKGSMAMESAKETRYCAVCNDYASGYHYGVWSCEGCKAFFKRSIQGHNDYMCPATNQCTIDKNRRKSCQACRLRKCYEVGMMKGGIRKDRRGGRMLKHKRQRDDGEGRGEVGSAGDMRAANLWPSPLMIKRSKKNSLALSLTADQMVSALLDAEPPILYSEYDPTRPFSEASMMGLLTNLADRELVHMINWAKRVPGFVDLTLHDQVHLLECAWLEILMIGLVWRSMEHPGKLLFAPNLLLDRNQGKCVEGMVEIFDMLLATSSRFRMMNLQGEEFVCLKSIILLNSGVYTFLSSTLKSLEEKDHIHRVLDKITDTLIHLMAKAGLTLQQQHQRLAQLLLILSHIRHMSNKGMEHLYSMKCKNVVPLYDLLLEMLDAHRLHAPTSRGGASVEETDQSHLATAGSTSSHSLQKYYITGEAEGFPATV
Description: Western blot analysis of ERα in MCF7 cells (dose response, MG132, VHL ligand and cpd 8 competition). Type of test: cell-based. The method, then: Fig. 2 AZ’6421 degrades ERα through a PROTAC mechanism of action. a Immunoblots for ERα and vinculin loading control. MCF7 cells were pre-treated with 10 µM MG132 or DMSO control for 1 h before being exposed to DMSO, AZ’6421, or fulvestrant, at the concentrations indicated, for a further 7 h. A representative immunoblot from two biological replicates is shown. b As in a but cells were pre-treated with 10 µM VHL ligand (Ac-(S,R,S)-AHPC) prior to addition of DMSO, AZ’6421 or fulvestrant. c MCF7 cells expressing BFP-Cas9 were reverse transfected with the crRNA:tracrRNA pool targeting VHL for 72 h prior to treatment with increasing concentrations of AZ’6421 for a further 24 h. Cells were then fixed, stained, and imaged to assess ERα and Cas9 expression. ERα levels in Cas9 positive cells were normalised to unedited cells (0) and ESR1 KO cells (-100). Data points are from three independent experiments, points in bold represent the mean. d Structure of AZ’6421 and the (S)-prolinol epimer, 7. e Concentration-response curves for AZ’6421 and 7. ERα levels in MCF7 cells were assessed using an immunofluorescence endpoint after 24 h exposure to compound. […] Data points are from 5 (AZ'6421) or 2 (Cpd 7) independent experiments with technical duplicates performed for each experiment, bold points represent the mean. All concentration-response curves were plotted using nonlinear regression analysis in GraphPad Prism.
Fig. 6 Assessment of the cause of the in vitro/in vivo disconnect. a CTC174 tumours were disaggregated into single cells, seeded in 6-well plates and dosed with increasing concentrations of AZ’6421 for 24 hours before being lysed. ERα levels were assessed by immunoblotting. ERɑ levels normalised to vinculin and expressed as % DMSO control are shown underneath the immunoblot. b Representative IHC images taken from sections of tumour treated with vehicle control or 100 mg/kg AZ’6421 for 4 days. Sections were stained with an antibody against ERα (Sp1, Ventana). c Schematic of potential sites of metabolism d Free plasma exposure of AZ’6421 and its metabolite 8 following 100 mg/kg dosing of AZ’6421. e Concentration-response curves for AZ’6421 and metabolite 8. ERα levels in MCF7 cells were assessed using an immunofluorescence endpoint after 24 h exposure to compound. […] Points in bold represent the mean. f Effect of metabolite 8 on ERα degradation in CTC174 cells cultured ex vivo. […] MCF7 cells were pre-treated with 10 µM cpd 8 or DMSO control for 1 h before being exposed to DMSO, AZ’6421 or fulvestrant, at the concentrations indicated, for a further 24 h. A representative immunoblot from two biological replicates is shown. TEXT PRINTED IN THE PICTURE: (a) AZ'6421: ERα % of DMSO control: 20.3 (1 nM); ERα % of DMSO control: 12.0 (10 nM); ERα % of DMSO control: 4.1 (30 nM); ERα % of DMSO control: 4.2 (100 nM); ERα % of DMSO control: 3.9 (300 nM); ERα % of DMSO control: 3.6 (1000 nM)
Cells were seeded into 12-well tissue culture-treated plates at 0.5 x 10^6 cells/well in phenol red-free RPMI containing 5% (v/v) charcoal-stripped FBS (F6765, Sigma) and left to adhere overnight. In experiments to detect agonism or for SILAC experiments, FBS was double stripped using activated charcoal. Cells were treated with compound or 0.1% DMSO vehicle control for the times indicated prior to being lysed in Pierce RIPA buffer (Thermo Scientific), supplemented with protease and phosphatase inhibitors. Expression levels of proteins were determined by standard western blotting techniques (BioRad 4%-12% Bis-Tris gels). Antibodies were diluted in 5% milk-PBS-Tween and protein levels were detected using Pierce WestDura chemiluminescent reagents followed by visualisation and quantification on a Syngene ChemiGenius Imager. Where blots were quantified, protein levels were normalised to beta-actin or vinculin control and expressed as % of vehicle control.

Turning to `Cc1ncsc1-c1ccc(CNC(=O)[C@@H]2C[C@@H](O)CN2C(=O)[C@@H](NC(=O)COCCCOCCCOc2cc(F)c([C@@H]3c4[nH]c5ccccc5c4C[C@@H](C)N3CC(C)(C)F)c(F)c2)C(C)(C)C)cc1` [Compound 5], the “effect of MG132 pre-treatment on ERα degradation” value (10 µM MG132 1 h, then compound 7 h, MCF7) is given as “attenuated ERα degradation”. Also, for the setting “10 µM VHL ligand, MCF7”, the “effect of excess acetylated-(S,R,S)-AHPC pre-treatment on ERα degradation” value is on record as “partially reduced ERα degradation”. Moreover, the “effect of excess (10 µM) 8 on ERα degradation” value (MCF7, 100 and 300 nM, 24 h) was “reduce this degradation to levels achieved in the presence of 8 alone”. The ERα degradation result (MCF7, 100 and 300 nM, 24 h, western blot) is “near-complete degradation of ERα”. For the same compound, the “concentration giving maximal ERα degradation” value (MCF7, 24 hours, western blot) is given as ≥ 10 nM. Also, the remaining activity at 1 µM (MCF7, read-out: ERa % of control) came out at 0.87%.

For the origin of these results see paper PMC11091220, “Metabolism-driven in vitro/in vivo disconnect of an oral ERɑ VHL-PROTAC” (Communications Biology, 2024).
